Values of other authors as cited in publication PMC7584476, “Safety and efficacy of BAY1436032 in IDH1-mutant AML: phase I study results” (Leukemia, 2020).

Key:
[1] = tested on: mIDH2; settings: preclinical; cited from earlier work
[2] = tested on: primary AML samples; settings: cited from earlier work

## C[C@H]1C[C@@H](n2c(Nc3ccc(OC(F)(F)F)cc3)nc3cc(CCC(=O)O)ccc32)CC(C)(C)C1 [BAY1436032]
[1]
  Inhibitory activity towards mIDH2: little or no inhibitory activity
[2]
  Number of colony-forming cells: decreased
